These results are taken from US20080188524A1, “Methods of treating pain” (priority 2006, published 2008).

For experiment [1], the system named is TNFα and IL6 expression in LPS induced THP-1 macrophages. The experiment can be described thus: In vitro THP-1 assay, LPS-induced cytokine expression (ELISA). It counts as cell-based, human. How it is done:
The human THP-1 cell line can be utilized as an in vitro model of cytokine expression as mediated by Lipopolysaccharide (LPS) or Tumor Necrosis Factors [TNFα]. Monocytic THP-1 cells (ATCC; TIB-202) can be differentiated into macrophage-like cells expressing pro-inflammatory cytokines like TNFα, IL6 and IL1β upon induction with LPS or by TNFα (autocrine induction) itself. THP-1 cells are grown in modified RPMI-1640medium (ATCC, Cat. No. 30-2001) supplemented with 10% FCS and 1% Pen/Strep. For cytokine inhibition assays, cells are seeded at a density of 5×10^5 cells/ml into 6-well plates in standard growth medium supplemented with 100 ng/ml PMA (Sigma, P1585) to induce differentiation into macrophage-like cells. After 24 hours, the medium is replaced with standard growth medium (without PMA) and the cells are incubated for another 48 hours to complete differentiation. […] Cells are incubated for 60 min with compounds prior to stimulation with 100 ng/ml LPS (Sigma, L2630) for another 4-48 hours. Supernatants are collected and assayed immediately for cytokine expression, e.g. for TNFα, IL-6 and IL-1b using commercially available sandwich ELISA assays (eBioscience, Cat. No 88-7346, 88-7066, 88-7010) or kept frozen at […] until evaluation. Concentrations of TNFα, IL6 and IL1β within the cell culture supernatants are measured by using commercial ELISA Kits (eBioscience) according to the manufacturer's instructions. CDK-inhibitory compounds according to any one of general Formula I, II or III are administered to differentiated THP-1 cells in triplicates as described above (see section 2.). After 60 min of pre-incubation with test or reference compound (SB203580, a p38 inhibitor and BMS345541, an IKK-inhibitor) alone, cells are stimulated with LPS. After incubation for 4-48 h, supernatants are collected and ELISA based determinations of cytokine supernatant concentrations are performed as described in section 3, supra. […] After 60 min of pre-incubation with test or reference compound (a p38 inhibitor and an IKK-inhibitor, respectively) alone, cells were stimulated with LPS. […]

For experiment [2], the system named is SNI mice (mechanical allodynia). The experiment can be described thus: Spared nerve injury (SNI) model, von Frey assay. It counts as in vivo, mice (strain C3HeB/FeJ). To be noted: 30 mg/kg i.p., day 21 post SNI. An excerpt: The spared nerve injury model (SNI model, as developed by Decosterd and Woolf (2000), see FIG. 1) is characterized by the induction of clinically relevant nerve lesions and after surgical intervention, subsequent behavioral experiments (e.g., von Frey Assay). Said model constitutes a common nerve injury model which consists of ligation and section of two branches of the sciatic nerve (namely tibial and common peroneal nerves) leaving the sural nerve intact. The SNI model results in early (less than 24 hours), prolonged and substantial changes in mechanical and cold sensitivity that closely mimic the features of clinical neuropathic pain. […] As outlined above, the spared nerve injury (SNI) model (see FIG. 1) involves a lesion of two of the three terminal branches of the sciatic nerve (tibial and common peroneal nerves) of experimental animals, leaving the sural nerve intact. SNI results in mechanical and thermal allodynia in the non-injured sural nerve skin territory (Decosterd and Woolf, Pain 2000; 87:149-158. (2) Tsujino et al., Mol. Cel. Neurosci. 2000; 15:170-182). Wildtype mice (strain […]/FeJ) (age, sex and weight matched) are anesthetized with Hypnorm (0.315 mg/ml fentanyl citrate +10 mg/ml fluanisone; Janssen)/Hypnovel (5 mg/ml midazolam; Roche Applied Sciences)/water at a ratio of 1:1:2 at 4 μl/g prior to surgical preparation. Subsequently, an incision is made under aseptic precautions in the ipsi-lateral right hind leg of all mice just above the level of the knee, exposing the three terminal branches of the sciatic nerve: the common peroneal, tibial, and sural nerves. The common peroneal and tibial nerves are ligated tightly with 7/0 silk and sectioned distal to the ligation removing 2 mm of distal nerve stump. The sural branch remains untouched during the procedure (denoted herein “SNI ipsi”). […] Reflex nociceptive responses to mechanical stimulation were measured in a von Frey assay 30 min after each injection. […] Mechanical thresholds of SNI mice are quantified using the up-down method based on Chaplan et al. (1994) and Malmberg and Basbaum (1998). […]

Experiment [3] concerns carrageenan-treated mice (paw edema). The experiment can be described thus: Carrageenan assay in mice, paw edema. The experiment is classed as in vivo. As to conditions: within the observation period, all treated animals. The procedure:
For the carrageenan assay a subcutaneous injection of 25 μl of 1% carrageenan (in saline) into a single hind paw (ipsi-lateral paw) of mice is applied. Subsequent inflammation results in long lasting swelling and hypersensitivity (against mechanical and thermal stimuli) of the paw. The carrageenan assay is a standard laboratory assay used to predict anti-inflammatory activity of test compounds. Paw edema measurements and Hargreaves Assay (withdrawal of paws due to thermal stimulation via a light source) are used for read out. The model of carrageenan induced paw edema is a standard laboratory assay used to predict anti-inflammatory activity and reduction of inflammation-induced pain perception of respective compounds. The following protocol describes one possible way to conduct the experiment. The basic measurement constitutes in the measurement of edema and mechanical as well as thermal hypersensitivity in response to irritants, such as carrageenan. […] Paw edema induced by carrageenan injection are detected by increased paw size measured from dorsal to plantar at the metatarsus region of the injected (ipsi-lateral) paws. Sizes of ipsi- and contra-lateral paws serve as surrogate markers for inflammation and are measured at several time points after carrageenan injection: before injection (-1), 2 […] […]

In experiment [4] the test system is LPS or SEB induced TNF α in human whole blood. The experiment can be described thus: tissue or blood. The experiment is classed as cell-based.
Where [5] appears, read: LPS-stimulated differentiated THP-1 cells, ELISA.

Several values for one entry are separate records, joined by “and”; a condition that tells them apart may be missing. Equal values may be shown once. Entries after “also recorded” stand apart in the source; their conditions may differ.

Regarding `CC(C)(C)c1cnc(CSc2cnc(NC(=O)C3CCNCC3)s2)o1` [compound #16 of Table 1, N-[5-[[[5-(1,1-dimethylethyl)-2-oxazolyl]-methyl]thio]-2-thiazolyl]-4-piperidinecarboxamide], the “TNFα signal compared to DMSO (vehicle control)” value in experiment [1] (3 μM, LPS-induced THP-1 cells) amounted to 50%. In addition, in experiment [1] (setting [5]), the “effect on IL6 protein concentration in the cell supernatant versus vehicle (DMSO)” value was “significant inhibitory effect” and the “effect on TNFα protein concentration in the cell supernatant versus vehicle (DMSO)” value is on record as “significant inhibitory effect”. For the same compound, the “effect on mechanical allodynia of SNI mice (von Frey)” value in experiment [2] (30 min prior to von Frey measurement, ipsi-lateral paw) is recorded as “hypoalgesic effect; also recorded: significant amelioration of allodynia”. Besides, in experiment [2] (contra-lateral paw), the “contra-lateral paws, effect of pharmacological treatment (von Frey)” value is reported as “unaffected”. For the same compound, the “von Frey threshold values” in experiment [2] (ipsi-lateral paw, all treated animals) was “significant increase of threshold values”. For the same compound, in experiment [3], the “ipsi-lateral paw edema compared to vehicle control group” value is listed as “reduced paw edema”. In addition, the “reduction of TNF α levels” value in experiment [4] was 89% and 85% and 78%. In experiment [4] (Homo sapiens, read-out: IC50 (TNF α reduction), deduced from the data), the concentration for half-maximal inhibition (IC50) is less than 0.5 µM.
